Target: T1, Human erythrocyte 20S proteasome (Homo sapiens, UniProt P28074)
T1 construct: Enzyme: Human erythrocyte 20S proteasome; from tissue; host or cells: human erythrocytes
Experiment: In vitro enzymatic assay of proteasome inhibitory activity (Suc-Leu-Leu-Val-Tyr-AMC substrate)
Assay type: biochemical
Settings: for inhibition at 0.5 µM: Concentration 500 nM; for inhibition at 1 µM: Concentration 1000 nM; for IC50: human erythrocyte 20S proteasome, 10 µM Suc-Leu-Leu-Val-Tyr-AMC, 37°C
Description: Example 20: In vitro enzymatic assay of proteasome inhibitory activity.
Substrate: Suc-Leu-Leu-Val-Tyr-AMC
Assay buffer: 250 mM HEPES, pH 7.5, 0.5 mM EDTA, 0.03% SDS, 0.05% Igepal CA-630.
Enzyme: Human erythrocyte 20S proteasome
In vitro proteasome inhibitory activity of the compounds of the invention is evaluated by spectrofluorimetric quantitation of AMC. Stock solutions of compounds of the invention are prepared in dimethyl sulphoxide (DMSO). Test compound and/or vehicle is preincubated with […] enzyme (human erythrocyte 20S proteasome) in modified HEPES buffer pH 7.5 and 1% final concentration of DMSO for 15 minutes at 37°C. The reaction is initiated by addition of 10 µM Suc-Leu-Leu-Val-Tyr-AMC for another 30 minutes incubation period at 37°C. Determination of the release of AMC is read spectrophotometrically (excitation, 380 nm; emission, 460 nm). IC50 values are determined by a non-linear, least squares regression analysis using MathlQTM (ID Business Solutions Ltd., UK).

| Structure (SMILES) | inhibition at 0.5 µM | inhibition at 1 µM | IC50 | inhibition at 0.05 µM (Concentration 50 nM) | inhibition at 0.1 µM (Concentration 100 nM) |
| --- | --- | --- | --- | --- | --- |
| CC(C)C[C@H](NC(=O)[C@@H]1N[C@H](c2cccc3ccccc23)[C@H]([N+](=O)[O-])[C@H]1c1ccccc1)B(O)O [Example 16, (R)-3-methyl-1-((2R,3S,4R,5R)-5-(naphthalen-1-yl)-4-nitro-3-phenylpyrrolidine-2-carboxamido)butylboronic acid] | 33% |  |  |  |  |
| CC(C)C[C@H](NC(=O)[C@H]1N[C@@H](c2ccccc2)[C@H]2C(=O)N(C)C(=O)[C@H]21)B(O)O [Example 18, (R)-3-methyl-1-((1S,3R,3aS,6aR)-5-methyl-4,6-dioxo-3-phenyloctahydropyrrolo[3,4-c]pyrrole-1-carboxamido)butylboronic acid] |  | 53% | 920 nM |  |  |
| CC(C)C[C@H](NC(=O)[C@@H]1N[C@H](c2cccc3ccccc23)[C@@H]([N+](=O)[O-])[C@@H]1c1ccccc1)B(O)O [Example 13, (R)-3-methyl-1-((2R,3R,4S,5R)-5-(naphthalen-1-yl)-4-nitro-3-phenylpyrrolidine-2-carboxamido)butylboronic acid] |  |  | 39 nM | 54% |  |
| Cc1ccc([C@H]2[C@H]([N+](=O)[O-])[C@@H](c3ccccc3)N[C@H]2C(=O)N[C@@H](CC(C)C)B(O)O)cc1 [Example 5, (R)-3-methyl-1-((2R,3R,4S,5R)-4-nitro-5-phenyl-3-p-tolylpyrrolidine-2-carboxamido)butylboronic acid] | 77% |  | 78 nM |  |  |
| CC(C)C[C@H](NC(=O)[C@H]1N[C@@H](c2ccccc2)[C@H]([N+](=O)[O-])[C@H]1c1ccccc1)B(O)O [Example 2, (R)-3-methyl-1-((2S,3S,4R,5S)-4-nitro-3,5-diphenylpyrrolidine-2-carboxamido)butylboronic acid] |  | 70% | 430 nM |  |  |
| CC(C)C[C@H](NC(=O)[C@@H]1N[C@H](c2ccccc2)[C@@H]([N+](=O)[O-])[C@@H]1c1ccc2ccccc2c1)B(O)O [Example 9, (R)-3-methyl-1-((2R,3R,4S,5R)-3-(naphthalen-2-yl)-4-nitro-5-phenylpyrrolidine-2-carboxamido)butylboronic acid] | 69% |  | 150 nM |  |  |
| CC(C)C[C@H](NC(=O)[C@@H]1N[C@H](c2cccnc2)[C@@H]([N+](=O)[O-])[C@@H]1c1ccccc1)B(O)O [Example 15, (R)-3-methyl-1-((2R,3R,4S,5R)-4-nitro-3-phenyl-5-(pyridin-3-yl)pyrrolidine-2-carboxamido)butylboronic acid] | 72% |  | 100 nM |  |  |
| COC(=O)[C@H]1[C@H](C(=O)OC)[C@H](c2ccccc2)N[C@@H]1C(=O)N[C@@H](CC(C)C)B(O)O [Example 17, (R)-1-((2S,3S,4S,5R)-3,4-bis(methoxycarbonyl)-5-phenylpyrrolidine-2-carboxamido)-3-methylbutylboronic acid] | 20% |  |  |  |  |
| CC(C)C[C@H](NC(=O)[C@@H]1N[C@H](c2ccccc2)[C@@H]2C(=O)N(C)C(=O)[C@@H]21)B(O)O [Example 19, (R)-3-methyl-1-((1R,3S,3aR,6aS)-5-methyl-4,6-dioxo-3-phenyloctahydropyrrolo[3,4-c]pyrrole-1-carboxamido)butylboronic acid] |  |  | 46 nM |  | 68% |
| CC(C)C[C@H](NC(=O)[C@@H]1N[C@H](c2ccccc2)[C@@H]([N+](=O)[O-])[C@@H]1c1ccc([N+](=O)[O-])cc1)B(O)O [Example 8, (R)-3-methyl-1-((2R,3R,4S,5R)-4-nitro-3-(4-nitrophenyl)-5-phenylpyrrolidine-2-carboxamido)butylboronic acid] | 69% |  | 150 nM |  |  |

— patent EP2910557A1, “Enantiopure tetrasubstituted pyrrolidines as scaffolds for proteasome inhibitors and medicinal applications thereof” (Ikerchem, S.L., priority 2014, dated 2015)
